In brackets after ≈: the same amount, converted by molar mass.

Chain of KRAS (G12D)::SOS1 protein-protein interaction (P01116 other isoform, or with tags, fused parts or gaps G12D): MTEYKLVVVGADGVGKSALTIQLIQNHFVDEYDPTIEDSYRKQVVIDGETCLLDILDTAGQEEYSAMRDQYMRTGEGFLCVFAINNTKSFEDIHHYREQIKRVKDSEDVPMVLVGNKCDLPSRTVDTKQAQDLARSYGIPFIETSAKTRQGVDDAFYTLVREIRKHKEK

Tested on in the first data set: not listed separately
Kind of data set: Plasma protein binding assay (PPB), equilibrium dialysis. It is filed as in vitro ADME. As to conditions: bovine, 10% FCS in PBS, read-out: PPB 10% FCS (% fu). The procedure:
Binding of test compounds to plasma was determined using equilibrium dialysis (ED) and quantitative mass spectrometry interfaced with liquid chromatography (LC-MS). In brief, ED was performed with dialysis devices consisting of two chambers separated by a semipermeable membrane with a molecular weight cut-off of 5-10 kg/mol. One chamber was filled with 10% FCS in PBS containing 1-10 μmol/L test compound and the other chamber was filled with phosphate-buffer saline (PBS) with or without dextran. The dialysis chamber was incubated for 3-5 hours at 37° C. After incubation, protein was precipitated from aliquots of each chamber and the concentration of test compound in the supernatant of the plasma-containing compartment (cserum) and of the buffer-containing compartment (cbuffer) was determined by LC-MS. The fraction of unbound test compound (not bound to plasma) (f) was calculated according to the following equation: […]
For `Cc1nc2c(O[C@@H](C)[C@@H]3CCCN3C)nc(-c3onc4c3CCC[C@@]43CCCc4sc(N)c(C#N)c43)nc2n1[C@@H]1CCOC1` [I-39], the fraction unbound is 0.24.

For `CO[C@@H]1C[C@@H]([C@H](C)Oc2nc(-c3onc4c3CCC[C@@]43CCCc4sc(N)c(C#N)c43)nc3c2CN(C2COC2)C[C@]32CCOC2)N(C)C1` [I-58], the fraction unbound was 0.24.

With `COCCn1c(=O)n([C@@H]2CCOC2)c2nc(-c3onc4c3CCC[C@@]43CCCc4sc(N)c(C#N)c43)nc(O[C@@H](C)[C@@H]3CCCN3C)c21` [I-1], the fraction unbound amounted to 0.34.

Tested on in the next data set: not listed separately
Kind of data set: Solubility measurement (DMSO solution precipitation method). It is filed as physicochemical. The note with it: aqueous buffer, kinetic from dmso stock, McIlvaine buffer pH 4.5, 24 h, read-out: solubility pH 4.5. Here is the method: A 10 mM DMSO stock solution of a test compound is used to determine its aq. solubility. The DMSO solution is diluted with an aq. medium (McIlvaine buffer with pH=4.5 or 6.8) to a final concentration of 250 μM. After 24 h of shaking at ambient temperature a potentially formed precipitate is removed by filtration. The concentration of the test compound in the filtrate is determined by LC-UV methods by calibrating the signal to the signal of a reference solution with complete dissolution of the test compound in acetonitrile/water (1:1) with known concentration.
In the case of `Cc1nc2c(O[C@@H](C)[C@@H]3CCCN3C)nc(-c3onc4c3CCC[C@@]43CCCc4sc(N)c(C#N)c43)nc2n1[C@@H]1CCOC1` [I-39], the solubility at 24 h was greater than 147 µg/mL.

`CO[C@@H]1C[C@@H]([C@H](C)Oc2nc(-c3onc4c3CCC[C@@]43CCCc4sc(N)c(C#N)c43)nc3c2CN(C2COC2)C[C@]32CCOC2)N(C)C1` [I-58]: the solubility at 24 h was greater than 167 µg/mL.

With `COCCn1c(=O)n([C@@H]2CCOC2)c2nc(-c3onc4c3CCC[C@@]43CCCc4sc(N)c(C#N)c43)nc(O[C@@H](C)[C@@H]3CCCN3C)c21` [I-1], the solubility at 24 h is greater than 157 µg/mL.

Staying with this data set, now noted: aqueous buffer, kinetic from dmso stock, McIlvaine buffer pH 6.8, 24 h, read-out: solubility pH 6.8.
Regarding `Cc1nc2c(O[C@@H](C)[C@@H]3CCCN3C)nc(-c3onc4c3CCC[C@@]43CCCc4sc(N)c(C#N)c43)nc2n1[C@@H]1CCOC1` [I-39], the solubility at 24 h is greater than 137 µg/mL.

As to `CO[C@@H]1C[C@@H]([C@H](C)Oc2nc(-c3onc4c3CCC[C@@]43CCCc4sc(N)c(C#N)c43)nc3c2CN(C2COC2)C[C@]32CCOC2)N(C)C1` [I-58], the solubility at 24 h was 122 µg/mL (≈ 177 µM).

With `COCCn1c(=O)n([C@@H]2CCOC2)c2nc(-c3onc4c3CCC[C@@]43CCCc4sc(N)c(C#N)c43)nc(O[C@@H](C)[C@@H]3CCCN3C)c21` [I-1], the solubility at 24 h is greater than 155 µg/mL.

For a further data set, the target named is KRAS (G12D)::SOS1 protein-protein interaction (Homo sapiens (Human), UniProt P01116, G12D). Kind of data set: KRAS::SOS1 AlphaScreen binding assay (KRAS G12D). As to conditions: GDP. The source says: This assay can be used to examine the potency with which compounds according to the invention binding to (mutated) KRAS inhibit the protein-protein interaction between SOS1 and (mutated) KRAS e.g. KRAS G12C, KRAS G12D. […] Low IC50 values in this assay setting are indicative of strong inhibition of protein-protein interaction between SOS1 and KRAS:
These assays measure the inhibitory effect of compounds on KRAS mutant protein-protein interactions using the Alpha Screen technology by Perkin Elmer.
The following (mutant) enzyme forms of KRAS and interacting proteins are used in these assays at the given concentrations:
KRAS (G12D) 1-169, N-terminal 6His-tag, C-terminal avi-tag (Xtal BioStructures, Inc.); final assay concentration 10 nM and SOS1 564-1049, N-terminal 229 GST-tag, TEV cleavage site (Viva Biotech Ltd); final assay concentration 5 nM;
Test compounds dissolved in DMSO are dispensed onto assay plates (Proxiplate 384 PLUS, white, PerkinElmer; 6008289) using an Access Labcyte Workstation with the Labcyte Echo 55x. For the chosen highest assay concentration of 100 μM, 150 nL of compound solution are transferred from a 10 mM DMSO compound stock solution. A series of eleven fivefold dilutions per compound are transferred to the assay plate, compound dilutions are tested in duplicates. DMSO are added as backfill to a total volume of 150 nL.
The assays run on a fully automated robotic system in a darkened room below 100 Lux. To 150 nl of compound dilution 10 μl of a mix including KRAS mutant protein, SOS1 (final assay concentrations see above) and GDP nucleotide (Sigma G7127; final assay concentration 10 μM) in assay buffer (1×PBS, 0.1% BSA, 0.05% Tween 20) are added into columns 1-24.
After 30 minutes incubation time 5 μl of Alpha Screen bead mix in assay buffer are added into columns 1-23. Bead mix consists of AlphaLISA Glutathione Acceptor Beads (PerkinElmer, Cat No AL109) and AlphaScreen Streptavidin Donor Beads (PerkinElmer Cat No 6760002) in assay buffer at a final assay concentration of 10 μg/mL each.
Plates are kept at room temperature in a darkened incubator. After an additional 60 minutes incubation time the signal is measured in a PerkinElmer Envision HTS Multilabel Reader using the AlphaScreen specs from PerkinElmer.
Each plate contains up to 16 wells of a negative control depending on the dilution procedure (platewise or serial) (DMSO instead of test compound; with KRAS mutant::SOS1 GOP mix and bead mix; column 23) and 16 wells of a positive control (DMSO instead of test compound; with KRAS mutant::SOS1 GOP mix w/o bead mix; column 24).
As internal control known inhibitors of KRAS mutant::SOS1 interaction can be measured on each compound plate.
IC50 values are calculated and analyzed with Boehringer Ingelheim's MEGALAB C50 application using a 4 parametric logistic model.
Tables of example compounds disclosed herein contain IC50 values determined using the above assays (see Table 43).
As to `Cc1nc2c(O[C@@H](C)[C@@H]3CCCN3C)nc(-c3onc4c3CCC[C@@]43CCCc4sc(N)c(C#N)c43)nc2n1[C@@H]1CCOC1` [I-39], the IC50 came out at 1 nM.

In the case of `CO[C@@H]1C[C@@H]([C@H](C)Oc2nc(-c3onc4c3CCC[C@@]43CCCc4sc(N)c(C#N)c43)nc3c2CN(C2COC2)C[C@]32CCOC2)N(C)C1` [I-58], the IC50 was 1 nM.

As for `COCCn1c(=O)n([C@@H]2CCOC2)c2nc(-c3onc4c3CCC[C@@]43CCCc4sc(N)c(C#N)c43)nc(O[C@@H](C)[C@@H]3CCCN3C)c21` [I-1], the IC50 was 1 nM.

A further data set concerns LOVO cells. As to the kind of experiment: LOVO CTG proliferation assay (120 h) (CRC, G13D). The class given is cell-based. The note with it: Homo sapiens. Here is the method:
(§1) LOVO cells (ATCC No. CCL-229) are dispensed into black 384-well plates, flat and clear bottom (Greiner, PNr. 781091) at a density of 1000 cells per well in 60 μl DMEM (Sigma D6429)+10% FCS (fetal calf serum, HyClone, SH30084.03). Cells are incubated overnight at 37° C. in a humidified tissue culture incubator at 5% CO2. Compounds (10 mM stock in DMSO) are added at logarithmic dose series using the ECHO acoustic liquid handler system (Beckman Coulter), normalizing for added DMSO and including DMSO controls. All compound treatments are performed in technical duplicates. For the TO time point measurement, untreated cells are analyzed at the time of compound addition. Plates are incubated for 120 h, and cell viability is measured using CellTiter-Glo luminescent cell viability reagent (Promega product code G7570). Viability (stated as percent of control) is defined as relative luminescence units RLU of each well divided by the RLU of cells in DMSO controls. IC50 values are determined from viability measurements by non-linear regression using a four-parameter model.
(§2) IC50 values of representative compounds according to the invention measured with these assays in the indicated cell lines are presented in Table 46.
Consider `Cc1nc2c(O[C@@H](C)[C@@H]3CCCN3C)nc(-c3onc4c3CCC[C@@]43CCCc4sc(N)c(C#N)c43)nc2n1[C@@H]1CCOC1` [I-39], for which the IC50 turned out to be 19 nM.

As for `CO[C@@H]1C[C@@H]([C@H](C)Oc2nc(-c3onc4c3CCC[C@@]43CCCc4sc(N)c(C#N)c43)nc3c2CN(C2COC2)C[C@]32CCOC2)N(C)C1` [I-58], the IC50 came out at 84 nM.

In the case of `COCCn1c(=O)n([C@@H]2CCOC2)c2nc(-c3onc4c3CCC[C@@]43CCCc4sc(N)c(C#N)c43)nc(O[C@@H](C)[C@@H]3CCCN3C)c21` [I-1], the IC50 came out at 5 nM.

For the next data set, the system named is NCI-H358 cells. As to the kind of experiment: NCI-H358 CTG proliferation assay (120 h) (NSCLC, G12C). The note with it: Homo sapiens. It is filed as cell-based. Here is the method:
as §1, with “NCI-H358” for “LOVO”, “CRL-5807)” for “CCL-229)”, “200” for “1000”, “RPMI-1640 ATCC-Formulation (Gibco #A10491)+10%” for “DMEM (Sigma D6429)+10%”, “serum).” for “serum, HyClone, SH30084.03).”
as §2
In turn, `Cc1nc2c(O[C@@H](C)[C@@H]3CCCN3C)nc(-c3onc4c3CCC[C@@]43CCCc4sc(N)c(C#N)c43)nc2n1[C@@H]1CCOC1` [I-39] registered an IC50 of 19 nM.

Take `CO[C@@H]1C[C@@H]([C@H](C)Oc2nc(-c3onc4c3CCC[C@@]43CCCc4sc(N)c(C#N)c43)nc3c2CN(C2COC2)C[C@]32CCOC2)N(C)C1` [I-58]: the IC50 amounted to 5 nM.

`COCCn1c(=O)n([C@@H]2CCOC2)c2nc(-c3onc4c3CCC[C@@]43CCCc4sc(N)c(C#N)c43)nc(O[C@@H](C)[C@@H]3CCCN3C)c21` [I-1] displayed an IC50 of 9 nM.

The values above are taken from patent US20250019385A1, “SPIROCYCLIC ANNULATED 2-AMINO-3-CYANO THIOPHENES AND DERIVATIVES FOR THE TREATMENT OF CANCER” (Boehringer Ingelheim International GmbH, priority 2023, published 2025).
